Values after ≈ are worked out from the molar mass of the structure shown.
Key:
[1] = system: small intestinal epithelial cells; experiment: TEM of small intestine sections of treated infected mice; format: in vivo
Description: The small intestine of each mouse was removed, cut into small pieces (1 mm^3), fixed in 2% glutaraldehyde in 0.1 M phosphate buffer, postfixed in 1% osmium tetraoxide for 2 h at 4°C, dehydrated, and embedded in Epon. Semi-thin and ultrathin sections (two samples per mouse) were prepared using an ultramicrotome. The sections were stained and analyzed using a transmission electron microscope.

[2] = Hemolytic activity assay (cytotoxicity on RBCs); format: cell-based, rat; settings: rat, washed erythrocytes (RBCs) suspended in PBS, 60 min at 37°C; for hemolysis at 60 min, 62.5 μg/mL: pH 7.4, 62.5 μg/mL; for hemolysis at 60 min, 125 μg/mL: pH 7.4, 125 μg/mL; for hemolysis at 60 min, 250 μg/mL: pH 7.4, 250 μg/mL; for hemolysis at 60 min, 500 μg/mL: pH 7.4, 500 μg/mL; for hemolysis at 60 min, 1000 μg/mL: pH 7.4, 1,000 μg/mL
Description: (§1) The hemolytic effect of different compounds was evaluated using an existing method. ([Diaconu et al., 2020]). One milliliter of rat blood was collected, added to a sterile, screw-top EDTA tube, and centrifuged at 3000 rpm for 20 min. The upper layer was decanted, and the erythrocytes were rinsed several times with 10 mL of cooled isotonic and sterile phosphate-buffered saline (PBS) with a pH of 7.4. The rinsed cells were re-suspended in 20 mL sterile, cold PBS. The compounds (serial dilutions of 62.5–1,000 μg/mL in DMSO) were added to the erythrocyte solution and incubated for 60 min at 37°C. After centrifugation at 3000 rpm for 10 min, the absorbance of hemoglobin in the supernatant at 540 nm was used to calculate the hemolysis rate. Triton X-100 (0.1% in PBS) was used as a positive control, and the vehicle (PBS/DMSO) was used as the negative control. The hemolysis percentage was calculated as follows: Hemolysis percentage = (Ab of sample − Ab of negative control)/(Ab of positive control–Ab of negative control) × 100.

IFN-γ = experiment: Serum IFN-γ in infected immunosuppressed mice (ELISA); format: in vivo; settings: compounds 100 mg/kg/day, NTZ 250 mg/kg/day, orally 10 days, mean ± SD
Description: (§2) Serum concentrations of IFN-γ, TNF-α, IL-6, and IL-10 for each group were determined using an enzyme-linked immunosorbent assay reader, following the manufacturer’s protocol.

IL-10 = experiment: Serum IL-10 in infected immunosuppressed mice (ELISA); format: in vivo; settings: compounds 100 mg/kg/day, NTZ 250 mg/kg/day, orally 10 days, mean ± SD
Description: as §2

IL-6 = experiment: Serum IL-6 in infected immunosuppressed mice (ELISA); format: in vivo; settings: compounds 100 mg/kg/day, NTZ 250 mg/kg/day, orally 10 days, mean ± SD
Description: as §2

Cryptosporidium oocysts = experiment: Oocyst shedding in feces of Cryptosporidium-infected immunosuppressed mice (modified Ziehl–Neelsen stain); format: in vivo; settings: compounds 100 mg/kg/day, NTZ 250 mg/kg/day, orally from 7th day post-infection for 10 days; for Shed oocysts/mg (Mean ± SD): immunosuppressed infected mice, feces 30 days post infection; for R%: reduction percent in oocyst count: vs infected non-treated G2
Excerpt: Cryptosporidium oocysts were obtained from the Parasitology Lab, Theodor Bilharz Research Institute, Giza, Egypt. Before infection, the oocysts were concentrated and counted in PBS using a hemocytometer. To maintain the organism cycle, five mice were inoculated with 3000–3500 oocysts using a tuberculin syringe in an intra-esophageal manner. ([Operario et al., 2015]).
Eighty healthy laboratory-bred adult male Swiss albino mice weighing 30–40 g were purchased from the animal house of the Faculty of Pharmacy, Pharos University. The animals were allowed to acclimatize for 1 week to the environmental conditions and housed in grouped plastic cages away from direct sunlight, under appropriate sanitary conditions and controlled temperature and humidity.
Immune suppression was induced and maintained throughout the experiment by administering dexamethasone (Dexazone, Al Kahira Pharmaceutical and Chemical Industries) through oral-gastric gavage at a dose of 0.25 mg/g/d for 14 consecutive days prior to inoculation with Cryptosporidium oocysts. ([Najoom et al., 2021]).
On day 15 of dexamethasone treatment, mice in the infected groups were inoculated with 10^4 Cryptosporidium oocysts using oral-gastric gavage. Before infection, oocysts were concentrated and counted in PBS using a hemocytometer.
Mice were distributed equally into eight groups of 10 each. At the end of the experiment, all animals were anesthetized for parasitological, ultrastructural, immunological, and biochemical studies. Mice grouping details are provided in the Supplementary Material.
On the final day of the experiment (30 days post infection), fresh fecal pellets from the infected mice in each group were collected to count the number of oocysts. Every sample was homogenized through suspension in double-distilled H2O. Subsequently, a fecal smear of 1 mg feces was prepared and stained using the modified Ziehl–Neelsen staining method. The stained fecal smear was examined microscopically, and the Cryptosporidium oocysts were counted. The number of oocysts per mg feces for each mouse was tabulated as the mean value for each group. All reported data represent the means of three independent trials.

TNF-α = experiment: Serum TNF-α in infected immunosuppressed mice (ELISA); format: in vivo; settings: compounds 100 mg/kg/day, NTZ 250 mg/kg/day, orally 10 days, mean ± SD
Description: as §2

RBCs = experiment: Hemolytic activity assay (cytotoxicity on RBCs); format: cell-based, rat; settings: for IC50: Rattus norvegicus, read-out: IC50: sample concentration causing 50% hemolysis of RBCs, highest tested concentration 1,000 μg/mL
Description: as §1

With Cc1ccc(C(C)C)c(OCC(=O)NN2C(=O)c3cccc4c(N)ccc(c34)C2=O)c1 [Compound 7b, N-(6-amino-1,3-dioxo-1H-benzo[de]isoquinolin-2(3H)-yl)-2-(2-isopropyl-5-methylphenoxy)acetamide] the “TEM ultrastructure of small intestine sections” value [1] was “healthy microvilli (slightly disfigured and disarranged)”, the hemolysis at 60 min, 62.5 μg/mL [2] was 0% and the hemolysis at 60 min, 125 μg/mL [2] was 0%. The hemolysis at 60 min, 250 μg/mL [2] was 0%, the hemolysis at 60 min, 500 μg/mL [2] was 0% and the hemolysis at 60 min, 1000 μg/mL [2] was 0%. It also gave an IFN-γ (IFN-γ) of 415.2 ± 2.57 pg/mL, an IL-10 (IL-10) of 277.2 ± 1.47 pg/mL and an IL-6 (IL-6) of 143.1 ± 1.1 pg/mL. For the same compound, the “Shed oocysts/mg (Mean ± SD)” value (Cryptosporidium oocysts) was 11.5 ± 0.85 oocysts/mg, the “R%: reduction percent in oocyst count” value (Cryptosporidium oocysts) was 67% and the TNF-α (TNF-α) was 11.8 ± 1.03 pg/mL.

With CC(=O)Oc1ccccc1C(=O)Nc1ncc([N+](=O)[O-])s1 [NTZ, nitazoxanide, reference compound] the “TEM ultrastructure of small intestine sections” value [1] was “normal ultrastructure and regularly arranged apical microvilli with oval euchromatic nuclei”, the IFN-γ (IFN-γ) was 422.1 ± 3.21 pg/mL and the “Shed oocysts/mg (Mean ± SD)” value (Cryptosporidium oocysts) was 10.4 ± 0.51 oocysts/mg. The “R%: reduction percent in oocyst count” value (Cryptosporidium oocysts) was 70% and the TNF-α (TNF-α) was 7.8 ± 0.91 pg/mL.

Compound Cc1ccc(C(C)C)c(OCC(=O)NN2C(=O)c3cccc4cccc(c34)C2=O)c1 [Compound 7a, N-(1,3-dioxo-1H-benzo[de]isoquinolin-2(3H)-yl)-2-(2-isopropyl-5-methylphenoxy) acetamide] has a Hemolysis % (RBCs; 1,000 μg/mL, 60 min at 37°C) of 6.1873%, an IC50 (RBCs) of 6750 µg/mL (≈ 16.8 mM) and a hemolysis at 60 min, 62.5 μg/mL [2] of 0%. For the same compound, the hemolysis at 60 min, 125 μg/mL [2] was 0%, the hemolysis at 60 min, 250 μg/mL [2] was 0% and the hemolysis at 60 min, 500 μg/mL [2] was 5.02%. It also gave a hemolysis at 60 min, 1000 μg/mL [2] of 6.18%, an IFN-γ (IFN-γ) of 608.8 ± 2.48 pg/mL and an IL-10 (IL-10) of 434.2 ± 1.13 pg/mL. For the same compound, the IL-6 (IL-6) was 237.4 ± 2.23 pg/mL, the “Shed oocysts/mg (Mean ± SD)” value (Cryptosporidium oocysts) was 16.8 ± 0.63 oocysts/mg and the “R%: reduction percent in oocyst count” value (Cryptosporidium oocysts) was 51%. It also gave a TNF-α (TNF-α) of 15.9 ± 0.87 pg/mL.

Cc1ccc(C(C)C)c(OCC(=O)NN2C(=O)c3ccc(C(=O)O)cc3C2=O)c1 [Compound 5b, 2-(2-(2-Isopropyl-5-methylphenoxy)acetamido)-1,3-dioxoisoindoline-5-carboxylic acid] gave a hemolysis at 60 min, 62.5 μg/mL [2] of 0%, a hemolysis at 60 min, 125 μg/mL [2] of 0% and a hemolysis at 60 min, 250 μg/mL [2] of 0%. The hemolysis at 60 min, 500 μg/mL [2] was 0%, the hemolysis at 60 min, 1000 μg/mL [2] was 0% and the IFN-γ (IFN-γ) was 494.2 ± 3.15 pg/mL. The IL-10 (IL-10) was 387.8 ± 0.78 pg/mL, the IL-6 (IL-6) was 181.7 ± 149 pg/mL and the “Shed oocysts/mg (Mean ± SD)” value (Cryptosporidium oocysts) was 14.7 ± 0.67 oocysts/mg. For the same compound, the “R%: reduction percent in oocyst count” value (Cryptosporidium oocysts) was 57% and the TNF-α (TNF-α) was 13.7 ± 1.25 pg/mL.

Cc1ccc(C(C)C)c(OCC(=O)NN2C(=O)c3ccccc3C2=O)c1 [Compound 5a, N-(1,3-dioxoisoindolin-2-yl)-2-(2-isopropyl-5-methylphenoxy)acetamide] gave a hemolysis at 60 min, 62.5 μg/mL [2] of 0%, a hemolysis at 60 min, 125 μg/mL [2] of 0% and a hemolysis at 60 min, 250 μg/mL [2] of 0%. It also gave a hemolysis at 60 min, 500 μg/mL [2] of 0%, a hemolysis at 60 min, 1000 μg/mL [2] of 0% and an IFN-γ (IFN-γ) of 477.8 ± 1.61 pg/mL. For the same compound, the IL-10 (IL-10) was 327.6 ± 1.34 pg/mL, the IL-6 (IL-6) was 176.8 ± 0.91 pg/mL and the “Shed oocysts/mg (Mean ± SD)” value (Cryptosporidium oocysts) was 13.2 ± 1.034 oocysts/mg. The “R%: reduction percent in oocyst count” value (Cryptosporidium oocysts) was 62% and the TNF-α (TNF-α) was 13.1 ± 0.99 pg/mL.

Cc1ccc(C(C)C)c(OCC(=O)Nn2c(=O)c3cc4c(=O)n(NC(=O)COc5cc(C)ccc5C(C)C)c(=O)c4cc3c2=O)c1 [Compound 9, N,N'-(1,3,5,7-tetraoxopyrrolo[3,4-f]isoindole-2,6(1H,3H,5H,7H)-diyl)bis(2-(2-isopropyl-5-methylphenoxy)acetamide)] showed an IC50 (RBCs) of 1560 µg/mL (≈ 2.48 mM), a hemolysis at 60 min, 62.5 μg/mL [2] of 0% and a hemolysis at 60 min, 125 μg/mL [2] of 0%. The hemolysis at 60 min, 250 μg/mL [2] was 0%, the hemolysis at 60 min, 500 μg/mL [2] was 0% and the hemolysis at 60 min, 1000 μg/mL [2] was 35%. It also gave an IFN-γ (IFN-γ) of 534.2 ± 1.26 pg/mL, an IL-10 (IL-10) of 416.8 ± 0.63 pg/mL and an IL-6 (IL-6) of 215.7 ± 1.15 pg/mL. The “Shed oocysts/mg (Mean ± SD)” value (Cryptosporidium oocysts) was 15.4 ± 0.52 oocysts/mg, the “R%: reduction percent in oocyst count” value (Cryptosporidium oocysts) was 55% and the TNF-α (TNF-α) was 16.2 ± 1.03 pg/mL.

From PMC12134901, “Synthesis and characterization of thymol-derived phenoxy acetamide derivatives using DFT, molecular docking, and parasitological investigations” (Frontiers in Chemistry, 2025)
